Assay results taken from ChEMBL document CHEMBL5303304, “EUbOPEN Chemogenomics Library - IncuCyte” (2023).

Experiments:
Assay type in all cases: toxicity, cell-based
HEK-293T = assay: Incucyte cell viability with HEK293T; conditions: human, 10 µM, compound concentration 10 uM
Fibroblast = assay: Incucyte cell viability with human fibroblast; conditions: 10 µM, compound concentration 10 uM
U2OS = assay: Incucyte cell viability with U2OS; conditions: human, 10 µM, compound concentration 10 uM
Further: unitless GR value; below 1 slowed growth and below 0 cell loss.

Row | Structure (SMILES) | Growth Rate (HEK-293T; 0 h, replicate number 1) | Growth Rate (Fibroblast; 0 h, replicate number 2) | Growth Rate (Fibroblast; 6 h, replicate number 1) | Growth Rate (Fibroblast; 6 h, replicate number 2) | Growth Rate (Fibroblast; 18 h, replicate number 1) | Growth Rate (Fibroblast; 18 h, replicate number 2) | Growth Rate (Fibroblast; 24 h, replicate number 1) | Growth Rate (U2OS; 0 h, replicate number 1) | Growth Rate (U2OS; 6 h, replicate number 1) | Growth Rate (U2OS; 12 h, replicate number 2) | Growth Rate (U2OS; 18 h, replicate number 2) | Growth Rate (U2OS; 24 h, replicate number 1) | Growth Rate (U2OS; 24 h, replicate number 2) | Growth Rate (HEK-293T; 0 h, replicate number 2) | Growth Rate (U2OS; 12 h, replicate number 1) | Growth Rate (U2OS; 6 h, replicate number 2) | Growth Rate (Fibroblast; 12 h, replicate number 2) | Growth Rate (HEK-293T; 12 h, replicate number 2) | Growth Rate (Fibroblast; 24 h, replicate number 2) | other results
1 | CN(C1CCc2c(c3ccccc3n2CC(=O)O)C1)S(=O)(=O)c1ccc(F)cc1 (stereo unspecified) | 0.38 | 0.14 | 0.47 | 0.23 | 0.85 | 0.96 | 0.96 | 0.71 | 0.61 | 0.9 | 0.93 | 0.87 | 0.92 |  |  |  |  |  |  | Growth Rate (Fibroblast; 0 h, replicate number 1): -0.98; Growth Rate (U2OS; 0 h, replicate number 2): 0.7
2 | CC(C)(O)c1coc(S(=O)(=O)NC(=O)Nc2c3c(cc4c2CCC4)CCC3)c1 | -0.08 | 0.57 |  |  |  |  | 0.99 | 0.85 | 0.92 | 0.89 | 0.99 |  | 0.94 | 0.34 | 0.88 |  |  |  |  | 
3 | NCc1ccc(OCCCc2sc(-c3ccc4c(c3)/C(=N/Nc3nc5ccccc5s3)CCC4)nc2C(=O)O)cc1 | 0.54 | -0.83 | 0.94 |  |  |  |  | 0.77 | 0.23 | 0.7 | 0.72 | 0.58 | 0.74 | -0.79 | 0.44 |  |  |  |  | Growth Rate (U2OS; 18 h, replicate number 1): 0.63
4 | Cc1nn(C)c(COc2ccc(N3CCN(S(=O)(=O)N(C)C)CC3)cc2)c1-c1cccc2c(CCCOc3cccc4ccccc34)c(C(=O)O)n(CCN3CCOCC3)c12 | 0.38 |  | 0.53 |  | 0.58 |  | 0.76 | 0.4 | 0.3 | 0.97 | 0.92 | 0.86 | 0.98 |  | 0.85 | 0.93 |  |  |  | Growth Rate (HEK-293T; 6 h, replicate number 1): 0.99; Growth Rate (HEK-293T; 6 h, replicate number 2): 0.84; Growth Rate (HEK-293T; 12 h, replicate number 1): 0.93; Growth Rate (HEK-293T; 18 h, replicate number 1): 0.93; Growth Rate (U2OS; 18 h, replicate number 1): 0.86
5 | Cc1csc(S(=O)(=O)N(CC(C)C)c2cc3c(cc2OCc2ccc(C(=O)O)cc2)CCC3)n1 | -0.23 | -0.95 | 0.68 | 0.06 |  |  |  |  |  | 0.88 | 0.83 | 0.99 | 0.86 | -0.11 |  | 0.87 | 0.69 |  |  | Growth Rate (U2OS; 18 h, replicate number 1): 0.99
6 | Cc1cc(OCc2nc3ccccc3s2)ccc1NC(=O)Nc1ccc(Cl)c(Cl)c1 | 0.1 | -0.81 |  |  |  | 0.94 |  |  |  |  | 0.98 |  |  | -0.01 |  |  | 0.94 | 0.92 | 0.92 | Growth Rate (Fibroblast; 0 h, replicate number 1): -1
7 | Cc1nn(-c2nc3ccc(Cl)c(Cl)c3[nH]2)c(O)c1C1OC(=O)c2ccccc21 (stereo unspecified) | 0.09 | -0.86 | 0.95 |  |  |  | 0.83 | 0.81 | 0.82 |  |  |  |  |  |  |  |  |  |  | Growth Rate (Fibroblast; 0 h, replicate number 1): -1
8 | CCCCCCC(Sc1nc(Cl)cc(NCc2ccc(-c3ccccc3)cc2)n1)C(=O)O (stereo unspecified) | 0.04 | -0.63 |  |  |  |  | 0.91 | 0.82 |  | 0.97 |  | 0.94 | 0.96 |  | 0.89 |  |  |  |  | 
9 | N[C@@H](CC(=O)O)Cn1nnc(-c2ccc(Oc3ncc(Cl)cc3F)cc2)n1 | 0.53 |  |  |  |  | 0.74 | 0.95 |  | 0.62 |  |  |  |  |  |  |  | 0.4 | 0.58 | 0.76 | Growth Rate (HEK-293T; 6 h, replicate number 1): 0.85; Growth Rate (HEK-293T; 6 h, replicate number 2): 0.12; Growth Rate (HEK-293T; 12 h, replicate number 1): 0.94; Growth Rate (HEK-293T; 18 h, replicate number 2): 0.72; Growth Rate (HEK-293T; 24 h, replicate number 1): 0.95; Growth Rate (HEK-293T; 24 h, replicate number 2): 0.83
10 | Cc1sc(C(=O)c2cncnc2N[C@@H]2C[C@H](COS(N)(=O)=O)[C@@H](O)C2)cc1[C@@H]1NCCc2ccc(Cl)cc21 | -0.45 | -0.16 | 0.42 |  | 0.44 |  | 0.47 |  | 0.59 | -0.03 | 0.17 | 0.66 | 0.3 | -0.97 | 1 | -0.29 | 0.8 |  |  | Growth Rate (HEK-293T; 18 h, replicate number 1): 0.9; Growth Rate (HEK-293T; 24 h, replicate number 1): 0.74; Growth Rate (HEK-293T; 24 h, replicate number 2): 0.88; Growth Rate (Fibroblast; 12 h, replicate number 1): 0.55; Growth Rate (U2OS; 0 h, replicate number 2): 0.29; Growth Rate (U2OS; 18 h, replicate number 1): 0.96
11 | C=C[C@@]12CCc3cc(O)ccc3[C@H]1CC[C@@]1(C)[C@H]2CC[C@@H]1O | 0.4 |  | 0.24 | 0.88 | 0.92 | 0.95 | 0.83 | 0.1 | 0.77 | 0.95 | 0.93 |  | 0.91 | -0.37 | 0.99 | 0.96 | 0.29 |  | 0.71 | Growth Rate (Fibroblast; 0 h, replicate number 1): -1; Growth Rate (Fibroblast; 12 h, replicate number 1): 0.86
12 | COc1ccc(Br)cc1S(=O)(=O)NC(=O)/C=C/c1cc(Cl)ccc1Cc1ccc2ccccc2c1 | 0.03 | -0.66 | 0.77 | -0.77 | 0.99 | 0.56 | 0.91 |  |  |  | 0.86 |  |  | 0.17 |  |  | 0.22 |  | 0.39 | Growth Rate (HEK-293T; 18 h, replicate number 2): 0.99; Growth Rate (HEK-293T; 24 h, replicate number 2): 0.94; Growth Rate (Fibroblast; 12 h, replicate number 1): 0.99
13 | CCCCC[C@@](C)(O)/C=C/[C@H]1C(=O)CC(O)C1C/C=C\CCCC(=O)O (stereo partly specified) | -0.27 |  |  | -0.92 |  | 0.57 |  |  | 0.49 |  |  | 0.94 | 1 | 0.17 |  |  | 0.2 | 0.96 | 0.71 | Growth Rate (Fibroblast; 12 h, replicate number 1): 0.71
14 | CC(C(=O)Nc1cc(C#N)ccc1CCCC(=O)O)c1ccc(F)c2ccccc12 (stereo unspecified) | 0.5 | -0.98 |  |  |  |  |  | 0 | 0.47 |  |  | 0.78 |  | 0.28 | 0.72 |  |  |  | 0.93 | Growth Rate (U2OS; 18 h, replicate number 1): 0.92
15 | O=C(O)CCCCCC[C@@H]1C(=O)NC(=O)N1CCC(O)C1CCCCC1 (stereo partly specified) | -0.07 | 0.52 | -0.07 |  | 0.69 |  | 0.75 | 0.14 | 0.54 | 0.93 | 0.87 |  | 0.92 | 0.52 |  | 0.99 |  |  |  | Growth Rate (Fibroblast; 0 h, replicate number 1): -0.99; Growth Rate (Fibroblast; 12 h, replicate number 1): 0.61
16 | CC(F)(F)CN1C(=O)c2[nH]nc(-c3cccc4[nH]c(=O)oc34)c2C1c1ccc(Oc2cc(C(F)(F)F)cc(C(F)(F)F)c2)cc1 (stereo unspecified) | 0.14 | -0.97 | 0.84 |  | 0.98 |  | 0.96 |  |  |  |  | 0.88 |  | -0.56 |  |  |  | 0.76 |  | Growth Rate (HEK-293T; 18 h, replicate number 1): 0.83; Growth Rate (HEK-293T; 18 h, replicate number 2): 0.68; Growth Rate (HEK-293T; 24 h, replicate number 1): 0.78; Growth Rate (HEK-293T; 24 h, replicate number 2): 0.75
17 | C1=Cc2ccccc2C(=C2CCN(CCCCc3nn[nH]n3)CC2)c2ccccc21 | 0.42 | -0.99 |  |  |  |  |  |  | 0.4 |  |  | 0.89 |  |  |  |  |  | 0.94 |  | Growth Rate (HEK-293T; 6 h, replicate number 1): 0.94; Growth Rate (HEK-293T; 6 h, replicate number 2): 0.78; Growth Rate (HEK-293T; 18 h, replicate number 1): 0.91
18 | Cc1nnc2n1-c1sc3c(c1C(c1ccccc1Cl)=NC2)C[C@@H](C(=O)N1CCOCC1)C3 | -0.21 |  |  |  |  |  |  | 0.65 | 0.49 |  |  |  |  | -0.7 | 0.84 |  | 0.81 |  | 0.86 | 
19 | CCCCc1c(-c2ccccc2)nc(N)nc1-c1ccc(OCc2ccccc2)c(F)c1F | -0.23 | 0.8 |  |  |  |  |  |  | 0.5 | 0.36 | 0.55 | 1 | 0.77 | -0.46 |  | 0.27 |  | 0.89 |  | Growth Rate (HEK-293T; 24 h, replicate number 2): 0.99; Growth Rate (U2OS; 0 h, replicate number 2): -0.86
20 | C[C@H](NC(=O)c1cc(Cl)ccc1Oc1ccc(F)cc1)c1ccc(C(=O)O)cc1 | -0.19 | -0.45 | 0.59 | -0.71 | 0.85 | 0.92 | 0.86 |  |  | 0.8 |  |  | 0.99 | 0.1 | 0.94 | 0.86 | 0.98 |  |  | 
